Ends that are not written are not given here.
Assays:
MOLT-4 = type: cell-based, human
Protocol: (§1) To determine apoptosis, cells were subjected to staining with 100 μg/ml acridine orange (AcOr) and 100 μg/ml ethidium bromide (EtBr) in PBS. Cells were centrifuged at 1500×g for 5 min at room temperature and resuspended in 25 μl complete medium, to which 2 μl of an AcOr/EtBr solution were added. The cells were then visualized by fluorescence microscopy (Olympus IX51) and images were recorded with an Olympus DP70 camera, using a SWB filter. In each independent experiment, in which early and late apoptotic cells were counted, approximately 250 cells were counted for each treatment.
(§2) The effect of the peptides N-ANTP (having the amino acid sequence of SEQ ID NO:73) and ANTP-LP4-trp (having the amino acid sequence of SEQ ID NO:15) on apoptotoc cell death was examined with cancer cells of various trypes. Table 6 below summarizes the cell line examined and concentration of each pepetide that gave 50% apoptotic cell death (IC50, μM).
(§3) All cells were grown in DMEM accept PC3, D-U145, Molt-4, Jurkat, Mec-1, U937 grown in RPMI medium and HUH7 grown in F12/DMEM medium.

T-Rex = type: cell-based, human
Protocol: as §1, §2, §3

U87 = type: cell-based, human
Protocol: as §1, §2, §3

Mec-1 = type: cell-based, human
Protocol: as §1, §2, §3

U937 = type: cell-based, human
Protocol: as §1, §2, §3

Panc-1 = type: cell-based, human
Protocol: as §1, §2, §3

[1] = test system: PBMCs isolated from CLL patients; type: cell-based, human
Protocol: Peripheral blood mononuclear cells (PBMCs) were isolated from venous blood of patients with chronic lymphocytic leukemia (CLL) by Ficoll-Paque PLUS (GE Healthcare, Israel) density gradient centrifugation. After informed consent, venous blood (10 ml) was drawn from CLL patients satisfying diagnostic criteria for CLL or from normal adult donors. Blood was collected into heparin tubes and diluted 1:1 with balance solution (composed of two stock solutions, A and B, in 1:9 ratio, respectively. Solution A contained: D-glucose 1%, CaCl2 5×10^−5M, MgCl2 9.8×10^−4M, KCl 5.4×10^−3M, Tris 0.145M, pH 7.6. Solution B contained NaCl 0.14M. The balance solution was prepared freshly every week. The diluted blood sample was subsequently carefully layered on Ficoll-Paque Plus (10 ml of diluted blood: 15 ml Ficoll) in 50 ml conical tubes. Tubes were centrifuged at 400×g (with minimal acceleration and deceleration) for 40 minutes at 18-20° C. The mononuclear cells fine layer was transferred to a new centrifuge tube. Cells were washed 3 times with balance solution and re-suspended in a culture medium appropriate to the application.
(§4) PBMCs (2×10^6 cells/sample) from CLL patients and healthy donors were treated with various concentrations of the peptide Antp-LP4-trp for 90 minutes. Cells were then gently washed once with PBS and stained with propidium iodide (PI) by adding 2.5 μl (1 mg/ml) and immediately analyzed for cell death. The level of cell death, reflected by the percentage of PI-positive cells, was determined by a flow cytometry analysis.
(§5) Preipheral blood mononuclear cells (PMBC) isolated from pateints having chronic lymphocytic leukemia (CLL) and MEC-1 cell lines (human chronic B-cell leukemia) were incubated for 90 min with Peptide N-ANTP (SEQ ID NO:73) at concentrations of 10-40 μM. Cell death was measured by PI staning and FACS analysis.
In ex vivo experiments, peripheral blood mononuclear cells (PBMCs) isolated from healthy individuals or CLL patients were incubated for 90 min with the indicated concentration of the ANTP-LP4-trp peptide. Cell death was assayed by PI staining and FACS analysis (healthy donors, n=34; CLL donors, n=39).

MEC-1 cell line = type: cell-based, human
Protocol: as §4, §5

A549 = type: cell-based
Protocol: as §1, §2, §3

H358 = type: cell-based
Protocol: as §1, §2, §3

MCF7 = type: cell-based
Protocol: as §1, §2, §3

MDA-MB-231 = type: cell-based
Protocol: as §1, §2, §3

SKOV-3 = type: cell-based
Protocol: as §1, §2, §3

K562 = type: cell-based
Protocol: as §1, §2, §3

Hep-G2 = type: cell-based
Protocol: as §1, §2, §3

A375 = type: cell-based
Protocol: as §1, §2, §3

THP-1 = type: cell-based
Protocol: as §1, §2, §3

T3M4 = type: cell-based
Protocol: as §1, §2, §3

HUH7 = type: cell-based
Protocol: as §1, §2, §3

JURKAT = type: cell-based
Protocol: as §1, §2, §3

AsPC1 = type: cell-based
Protocol: as §1, §2, §3

[2] = test system: PBMCs isolated from healthy donors; test: Cell death, PI staining and FACS; type: cell-based, human; settings: 90 min, n=34
Protocol: Peripheral blood mononuclear cells (PBMCs) were isolated from venous blood of patients with chronic lymphocytic leukemia (CLL) by Ficoll-Paque PLUS (GE Healthcare, Israel) density gradient centrifugation. After informed consent, venous blood (10 ml) was drawn from CLL patients satisfying diagnostic criteria for CLL or from normal adult donors. […]
as §4, with “analysis. […]” for “analysis.”

[3] = test system: U937, MOLT4 and MEC-1 cells; test: Cancer cell death by L- or D-amino acid peptide; type: cell-based, human; settings: average of two experiments
Text: The results are average of two experiments

HeLa = test system: HeLa
Protocol: as §1
The effect of the peptides N-ANTP (having the amino acid sequence of SEQ ID NO:73) and ANTP-LP4-trp (having the amino acid sequence of SEQ ID NO:15) on apoptotoc cell death was examined with cancer cells of various trypes.
as §3

PBMCs = type: cell-based, human
Protocol: as §1, §2, §3

[4] = type: physicochemical
Protocol: The peptides N-ANTP (C-terminus), ANTP-LP4-trp, TAT-LP4-trp and Tf-LP4-trp were synthesized by GL Biochem (Shanghai, China). The N-terminal peptide was water-soluble, while the other peptides were dissolved in DMSO. The concentration of DMSO in control and peptide-containing samples was up to 4%.

PC-3 = test: Apoptosis induction by peptides, IC50; type: cell-based; settings: PC-3, Prostate adenocarcinoma, Mut-P53, Androg↑
Protocol: as §1, §2, §3

Molecule | IC50 (MOLT-4) | IC50 (T-Rex) | IC50 (U87) | IC50 (Mec-1) | IC50 (U937) | IC50 (Panc-1) | IC50 [1] | IC50 (MEC-1 cell line) | IC50 (A549) | IC50 (H358) | IC50 (MCF7) | IC50 (MDA-MB-231) | IC50 (SKOV-3) | IC50 (K562) | IC50 (Hep-G2) | IC50 (A375) | IC50 (THP-1) | IC50 (T3M4) | IC50 (HUH7) | IC50 (JURKAT) | other results
CC[C@H](C)[C@H](NC(=O)[C@H](CCCCN)NC(=O)[C@@H](NC(=O)[C@H](CCC(N)=O)NC(=O)[C@H](CCCNC(=N)N)NC(=O)[C@@H](N)CCSC)[C@@H](C)CC)C(=O)N[C@@H](Cc1c[nH]c2ccccc12)C(=O)N[C@@H](Cc1ccccc1)C(=O)N[C@@H](CCC(N)=O)C(=O)N[C@@H](CC(N)=O)C(=O)N[C@@H](CCCNC(=N)N)C(=O)N[C@@H](CCCNC(=N)N)C(=O)N[C@@H](CCSC)C(=O)N[C@@H](CCCCN)C(=O)N[C@@H](Cc1c[nH]c2ccccc12)C(=O)N[C@@H](CCCCN)C(=O)N[C@@H](CCCCN)C(=O)N[C@@H](CO)C(=O)N[C@@H](Cc1c[nH]c2ccccc12)C(=O)N[C@H](C(=O)N[C@@H](Cc1c[nH]c2ccccc12)C(=O)N[C@@H](CCC(=O)O)C(=O)N[C@@H](CCCCN)C(=O)N[C@@H](CCCCN)C(=O)N[C@@H](CC(C)C)C(=O)N[C@@H](CCC(=O)O)C(=O)N[C@H](C(=O)N[C@@H](C)C(=O)N[C@H](C(=O)N[C@@H](CC(N)=O)C(=O)N[C@@H](CC(C)C)C(=O)N[C@@H](C)C(=O)N[C@@H](Cc1c[nH]c2ccccc12)C(=O)N[C@H](C(=O)N[C@@H](C)C(=O)NCC(=O)N[C@@H](CC(N)=O)C(=O)N[C@@H](CO)C(=O)N[C@@H](CC(N)=O)C(=O)N[C@@H](CCCCN)C(=O)N[C@@H](Cc1c[nH]c2ccccc12)C(=O)N[C@H](C(=O)N[C@@H](Cc1c[nH]c2ccccc12)C(=O)N[C@@H](CCCCN)C(=O)O)[C@@H](C)O)[C@@H](C)O)C(C)C)[C@@H](C)O)[C@@H](C)O [ANTP-LP4-trp] | 760 ± 200 nM | 6.5 ± 0.9 µM | 1400 ± 500 nM | 530 ± 100 nM | 280 ± 100 nM | 6.4 ± 0.6 µM | 200 to 250 nM | < 2000 nM | 1500 ± 200 nM | 1500 ± 500 nM | 1900 ± 40 nM | 1600 ± 600 nM | 1000 ± 200 nM | 260 ± 100 nM | 1600 ± 600 nM | 6.4 ± 0.6 µM | 300 ± 100 nM | 500 ± 200 nM | 600 ± 300 nM | 230 ± 100 nM | correlation between relative amount of cancer cells (CD19+/CD5+) and peptide-induced cell death ([1]; 0.375 μM): tight correlation; cell death of CLL-derived PBMCs ([1]; 90 min, CLL donors, n=39): highly effective in inducing cancer cell death; IC50 (AsPC1): 2.7 ± 1.7 µM; effect on PBMCs isolated from healthy donors [2]: marginal; cell-death induction, L- versus D-amino acid peptide [3]: irrespective to the D/L configuration; IC50 (HeLa): 900 ± 30 nM
MAVPPTYADLGKSARDVFTKGYGFGLMRQIKIWFQNRRMKWKK [N-ANTP] | 1100 ± 300 nM | 5.6 ± 0.9 µM | 1400 ± 600 nM | 930 ± 100 nM | 580 ± 200 nM | 6.2 ± 0.6 µM | 3000 to 4000 nM | 3000 to 4000 nM | 2700 ± 500 nM | 2700 ± 200 nM | 2500 ± 600 nM | 1500 ± 300 nM | 2000 ± 800 nM | 600 ± 400 nM | 3600 ± 1300 nM | 2.8 ± 0.4 µM | 530 ± 30 nM | 1300 ± 400 nM | 1300 ± 300 nM | 350 ± 500 nM | IC50 (PBMCs): 10.1 ± 1.2 µM; IC50 (AsPC1): 6.1 ± 0.1 µM; solubility [4]: water-soluble; IC50 (HeLa): 2700 ± 800 nM; IC50 (PC-3): 400 ± 100 nM
